These results are taken from patent US20080194679A1, “Compositions and methods for increasing metabolic activity in animal tissue” (priority 2007, published 2008).

For data set [1] the following is noted: chicks, 21 days, 40 mg zinc per day per kg feed.
Experimental: (§1) A group of one day old chicks were administered 40 mg zinc per day per kg feed for 21 consecutive days. […] At the end of 21 days, all chicks in all groups were killed, freeze dried, and a whole body assay for zinc performed.
The conditions of data set [2]: chicks, 21 Day, 40 mg zinc per day per kg feed.
Experimental: as §1
Data set [3] in a line: Isotope study: deposition of 65zinc into male sex organ tissues after single intravenous dose. It counts as in vivo. Conditions: zinc sufficient adult male rats, single I.V. dose 0.06 mg zinc, 24 hours post-dosing. The protocol:
In an isotope study, three groups of zinc sufficient adult male rats (6/group) received a single intravenous (I.V.) dose of 0.06 mg zinc containing 10 microcurines of zinc chelated to either arginine or glycine or as zinc chloride (ZnCl2). The arginine contained about twice as much nitrogen bonded to the zinc atom as did glycine. The ZnCl2 had no nitrogen bonded to the zinc. Twenty four hours post-dosing, all animals were sacrificed and their testes, epididymis, and seminal vesicles were assayed for zinc. The male sex organs were targeted for these zinc assays because of the dominant role zinc plays in their proper functioning. In theory, the uptake of zinc from the three sources into the tissues should have been equivalent since all three sources were administered by I.V. and none of the animals was zinc deficient.
As noted above, arginine has about twice as much nitrogen in the ligand as glycine.

A short description of data set [4]: Tied-off ileum section dosed with 65Zn solution; 65Zn in liver, heart and spleen by liquid scintillation. In kind it is in vivo. The note with it: non-fasted rats, 1×10^−4M solution in tied off ileum section, 2 hours post dosing. Here is the method:
Non-fasted rats were first anesthetized and then their intestines exposed. A 10 cm section of the ileum was tied off at both ends extending 15 cm to 5 cm proximal to the ileoceal valve. At each end, a 0.5 cm incision was made allowing the tied off section to be thoroughly washed with Ringers solution via the incisions. A solution containing ^65ZnCl2 or ^65Zn Histidine (1×10^−4M) was introduced into the tied off section. At 2 hours post dosing, the rats were killed by cervical dislocation. Their livers, hearts, and spleens were taken, weighed, dissected, and assayed by liquid scintillation for ^65Zn.

The nature of data set [5]: Iron source fed to gestating sows; piglet blood hemoglobin, hematocrit and serum ferritin at farrowing. The note with it: sows fed iron source daily from 4 weeks before farrowing. In kind it is in vivo, sows / piglets. The source says: Ferrous iron was chelated to various high nitrogen-containing amino acid chelates. Six grams of such a chelate formula (0.6 g Fe) was fed daily to gestating sows beginning 4 weeks before expected farrowing. Another group of gestating sows received 2 g daily of ferrous fumarate (0.67 g Fe) for the same period. One week prior to farrowing, the dosages of iron were doubled for each group.
At farrowing blood samples were taken from each piglet and assayed for hemoglobin, hematocrit, and serum ferritin. The hemoglobin and hematocrit represent current iron status but serum ferritin represents iron storage for future use.

Marks after values point to notes of the source that are not given here.

Consider “zinc bisarginate (2:1) [Zn Bisarginate (2:1)]”, for which the “zinc retention in the body (in words)” value in data set [1] is reported as “increased over zinc bisglycinate (2:1) significantly”. In data set [2], the “Body Weight” value is 829.15 g and the Gain/Feed result was “.078 g”.
In the same order, the values of “zinc glycinate (1:1) [Zn Glycinate (1:1)]” are “similar”, 817.08 g and 0.77 g.
Regarding `[Cl-].[Cl-].[Zn+2]` [^65Zn Chloride, zinc chloride], the “Deposition of ^65zinc into tissue: Epididymis” value in data set [3] (epididymis) is reported as “Negligible”. Also, the “Deposition of ^65zinc into tissue: Seminal Vesicle” value in data set [3] (seminal vesicle) is given as “Negligible”. In addition, the “Deposition of ^65zinc into tissue: Testes” value in data set [3] (testes) is given as “Negligible”. In data set [4] (heart), the “^65Zn in tissue: Heart” value stood at 1.00 ± 0.33 number × 10^−10 Zn/gm. The “^65Zn in tissue: Liver” value in data set [4] (liver) amounted to 8.67 ± 5.67 number × 10^−10 Zn/gm. In data set [4] (spleen), the “^65Zn in tissue: Spleen” value is recorded as 3.50 ± 0.25 number × 10^−10 Zn/gm.
With `O=[N+]([O-])[O-].O=[N+]([O-])[O-].[Zn+2]` [Zn Nitrate, zinc nitrate], in data set [1], the “zinc retention in the body (in words)” value is “similar”. In addition, in data set [2], the “Body Weight” value is recorded as 734.98 g and the Gain/Feed came to 0.74 g.
As to `O=C([O-])/C=C/C(=O)[O-].[Fe+2]` [Ferrous Fumarate, ferrous fumarate], the “Serum Ferritin” value in data set [5] (a/b P < 0.01) is listed as 20.1^b ng/ml. Moreover, in data set [5] (doubled in the last week), the Hematocrit is reported as 33.2% and the Hemoglobin turned out to be 9.7 g/dL.
For the compound `NCC(=O)[O-].NCC(=O)[O-].[Zn+2]` [Zn Bisglycinate (2:1), zinc bisglycinate (2:1)], the “zinc retention in the body (in words)” value in data set [1] is recorded as “increased to some degree”. Further, in data set [2], the “Body Weight” value was 812.55 g and the Gain/Feed entry is “.078 g”.
